Assay results reported in the NIST ThermoML archive (doi:10.1021/je501083d).
Numbers after ± are expanded uncertainties.

Conditions: 101.33 kPa, Liquid, Pycnometric method

SMILES: CCCC[n+]1ccn(C)c1.O=S(=O)([N-]S(=O)(=O)C(F)(F)F)C(F)(F)F
- mass density (288.2 K): 1443.6 ± 6.1 kg/m3
- mass density (293.2 K): 1439.7 ± 6.1 kg/m3
- mass density (298.2 K): 1435.6 ± 6 kg/m3
- mass density (303.2 K): 1431.3 ± 6 kg/m3
- mass density (308.2 K): 1426.8 ± 6 kg/m3
- mass density (313.2 K): 1421.9 ± 6 kg/m3

SMILES: CCCCn1cc[n+](C)c1.F[P-](F)(F)(F)(F)F [1-butyl-3-methylimidazolium hexafluorophosphate]
- mass density (288.2 K): 1375.8 ± 2.8 kg/m3
- mass density (293.2 K): 1371.5 ± 2.8 kg/m3
- mass density (298.2 K): 1368.4 ± 2.8 kg/m3
- mass density (303.2 K): 1363.5 ± 2.8 kg/m3
- mass density (308.2 K): 1359.3 ± 2.8 kg/m3
- mass density (313.2 K): 1355 ± 2.8 kg/m3

SMILES: CCCCn1cc[n+](C)c1.F[B-](F)(F)F [1-butyl-3-methylimidazolium tetrafluoroborate]
- mass density (288.2 K): 1205.4 ± 2.5 kg/m3
- mass density (293.2 K): 1202.1 ± 2.5 kg/m3
- mass density (298.2 K): 1199.4 ± 2.5 kg/m3
- mass density (303.2 K): 1195.4 ± 2.5 kg/m3
- mass density (308.2 K): 1191.7 ± 2.5 kg/m3
- mass density (313.2 K): 1188 ± 2.5 kg/m3
